The kinase profiling compilation of Christmann-Franck et al. (2016)
Where “and” joins values, the source holds several entries; their conditions need not be identical. Equal values may be shown once. One block for each compound: values may come before it.

Tests used:
Assay in all cases: Caliper, Mobility shift assay off-chip
[1] = molecular target: CAMK4 (human) (UniProt Q16566)
[2] = molecular target: CDK9 (human) (UniProt P50750)
[3] = molecular target: CSNK1D (human) (UniProt P48730)
[4] = molecular target: CSNK1G1 (human) (UniProt Q9HCP0)
[5] = molecular target: DCLK2 (human) (UniProt Q8N568)
[6] = molecular target: DDR1 (human) (UniProt Q08345)
[7] = molecular target: EPHB1 (human) (UniProt P54762)
[8] = molecular target: EPHB4 (human) (UniProt P54760)
[9] = molecular target: HIPK3 (human) (UniProt Q9H422)
[10] = molecular target: HIPK4 (human) (UniProt Q8NE63)
[11] = molecular target: IKBKB (human) (UniProt O14920)
[12] = molecular target: JAK2 JH1 JH2 (human) (UniProt O60674)
[13] = molecular target: JAK3 JH1 JH2 (human) (UniProt P52333)
[14] = molecular target: MAPK11 (human) (UniProt Q15759)
[15] = molecular target: MAPK9 (human) (UniProt P45984)
[16] = molecular target: NEK9 (human) (UniProt Q8TD19)
[17] = molecular target: NTRK2 (human) (UniProt Q16620)
[18] = molecular target: NUAK2 (human) (UniProt Q9H093)
[19] = molecular target: PASK (human) (UniProt Q96RG2)
[20] = molecular target: PDK2 (human) (UniProt Q15119)
[21] = molecular target: PDK4 (human) (UniProt Q16654)
[22] = molecular target: PRKCD (human) (UniProt Q05655)
[23] = molecular target: PRKCZ (human) (UniProt Q05513)
[24] = molecular target: PRKD2 (human) (UniProt Q9BZL6)
[25] = molecular target: RPS6KA1 KD1 KD2 (human) (UniProt Q15418)
[26] = molecular target: RPS6KA2 KD1 KD2 (human) (UniProt Q15349)
[27] = molecular target: SIK1 (human) (UniProt P57059)
[28] = molecular target: SIK2 (human) (UniProt Q9H0K1)
[29] = molecular target: SRPK2 (human) (UniProt P78362)
[30] = molecular target: STK10 (human) (UniProt O94804)
[31] = molecular target: TBK1 (human) (UniProt Q9UHD2)
[32] = molecular target: TNIK (human) (UniProt Q9UKE5)
[33] = molecular target: TSSK1B (human) (UniProt Q9BXA7)
[34] = molecular target: WNK2 (human) (UniProt Q9Y3S1)

Sequence of TSSK1B (human) (Q9BXA7 whole entry, looked up): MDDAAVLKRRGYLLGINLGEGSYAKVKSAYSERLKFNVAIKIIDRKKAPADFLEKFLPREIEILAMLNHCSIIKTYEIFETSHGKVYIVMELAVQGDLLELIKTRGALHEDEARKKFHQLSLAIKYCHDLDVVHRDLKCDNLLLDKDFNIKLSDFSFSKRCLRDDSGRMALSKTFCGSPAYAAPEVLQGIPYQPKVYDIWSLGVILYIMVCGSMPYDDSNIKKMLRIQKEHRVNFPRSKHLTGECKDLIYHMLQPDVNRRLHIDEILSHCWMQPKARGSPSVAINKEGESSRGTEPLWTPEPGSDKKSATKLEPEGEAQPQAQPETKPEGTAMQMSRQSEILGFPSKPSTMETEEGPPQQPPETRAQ
Sequence of PDK4 (human) (Q16654 whole entry, looked up): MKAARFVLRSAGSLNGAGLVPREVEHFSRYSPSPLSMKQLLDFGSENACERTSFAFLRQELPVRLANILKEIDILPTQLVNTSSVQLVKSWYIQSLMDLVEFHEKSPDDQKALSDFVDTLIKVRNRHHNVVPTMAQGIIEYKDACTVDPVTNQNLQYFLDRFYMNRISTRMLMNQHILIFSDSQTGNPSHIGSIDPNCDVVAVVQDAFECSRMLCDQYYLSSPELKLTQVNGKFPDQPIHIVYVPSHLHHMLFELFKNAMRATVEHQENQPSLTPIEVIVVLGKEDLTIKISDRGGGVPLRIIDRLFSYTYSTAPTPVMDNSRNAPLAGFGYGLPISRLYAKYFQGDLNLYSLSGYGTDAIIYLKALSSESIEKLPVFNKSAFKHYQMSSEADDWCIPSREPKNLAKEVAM
Sequence of EPHB1 (human) (P54762 whole entry, looked up): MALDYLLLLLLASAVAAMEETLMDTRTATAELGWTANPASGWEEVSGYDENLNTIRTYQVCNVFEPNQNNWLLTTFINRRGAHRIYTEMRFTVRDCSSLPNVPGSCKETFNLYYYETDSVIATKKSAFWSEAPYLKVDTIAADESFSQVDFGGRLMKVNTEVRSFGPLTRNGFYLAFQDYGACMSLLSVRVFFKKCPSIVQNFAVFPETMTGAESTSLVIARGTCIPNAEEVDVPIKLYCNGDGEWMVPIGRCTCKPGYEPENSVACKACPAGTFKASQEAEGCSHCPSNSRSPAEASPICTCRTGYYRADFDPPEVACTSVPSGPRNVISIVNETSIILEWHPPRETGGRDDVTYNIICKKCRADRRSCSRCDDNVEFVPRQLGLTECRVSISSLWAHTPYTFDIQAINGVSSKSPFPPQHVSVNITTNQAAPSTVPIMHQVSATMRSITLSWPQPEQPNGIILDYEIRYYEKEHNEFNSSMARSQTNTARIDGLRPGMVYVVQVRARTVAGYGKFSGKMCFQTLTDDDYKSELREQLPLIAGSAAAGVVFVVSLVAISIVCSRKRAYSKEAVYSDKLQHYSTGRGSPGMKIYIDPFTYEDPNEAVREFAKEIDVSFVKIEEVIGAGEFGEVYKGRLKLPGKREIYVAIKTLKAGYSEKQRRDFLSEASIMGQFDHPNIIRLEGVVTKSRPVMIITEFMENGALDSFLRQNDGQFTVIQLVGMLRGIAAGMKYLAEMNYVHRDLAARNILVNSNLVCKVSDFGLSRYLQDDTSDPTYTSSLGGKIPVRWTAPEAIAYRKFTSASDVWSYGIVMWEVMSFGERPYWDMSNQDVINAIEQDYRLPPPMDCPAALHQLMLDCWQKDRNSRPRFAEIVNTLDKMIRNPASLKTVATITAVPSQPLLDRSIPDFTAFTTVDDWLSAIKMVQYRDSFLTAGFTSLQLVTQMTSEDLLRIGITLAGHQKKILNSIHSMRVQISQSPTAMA
Sequence of SRPK2 (human) (P78362 whole entry, looked up): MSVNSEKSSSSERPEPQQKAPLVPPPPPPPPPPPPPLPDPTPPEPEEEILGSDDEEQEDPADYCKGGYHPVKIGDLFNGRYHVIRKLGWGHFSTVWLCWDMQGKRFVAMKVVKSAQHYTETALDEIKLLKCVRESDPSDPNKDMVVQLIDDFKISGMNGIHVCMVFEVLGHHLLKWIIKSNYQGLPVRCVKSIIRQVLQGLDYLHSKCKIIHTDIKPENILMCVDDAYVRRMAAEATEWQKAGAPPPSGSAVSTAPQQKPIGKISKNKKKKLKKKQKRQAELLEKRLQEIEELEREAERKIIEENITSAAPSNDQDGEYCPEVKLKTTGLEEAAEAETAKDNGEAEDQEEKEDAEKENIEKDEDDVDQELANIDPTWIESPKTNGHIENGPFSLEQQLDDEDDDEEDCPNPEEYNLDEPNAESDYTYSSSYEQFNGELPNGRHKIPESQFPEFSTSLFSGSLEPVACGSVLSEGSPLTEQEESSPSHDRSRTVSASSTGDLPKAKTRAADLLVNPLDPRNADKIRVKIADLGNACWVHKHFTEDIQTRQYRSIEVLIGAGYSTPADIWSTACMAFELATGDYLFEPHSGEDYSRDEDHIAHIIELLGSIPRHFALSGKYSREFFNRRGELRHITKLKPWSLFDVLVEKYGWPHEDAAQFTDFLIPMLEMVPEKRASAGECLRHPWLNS
Sequence of JAK2 JH1 JH2 (human) (O60674 whole entry, looked up): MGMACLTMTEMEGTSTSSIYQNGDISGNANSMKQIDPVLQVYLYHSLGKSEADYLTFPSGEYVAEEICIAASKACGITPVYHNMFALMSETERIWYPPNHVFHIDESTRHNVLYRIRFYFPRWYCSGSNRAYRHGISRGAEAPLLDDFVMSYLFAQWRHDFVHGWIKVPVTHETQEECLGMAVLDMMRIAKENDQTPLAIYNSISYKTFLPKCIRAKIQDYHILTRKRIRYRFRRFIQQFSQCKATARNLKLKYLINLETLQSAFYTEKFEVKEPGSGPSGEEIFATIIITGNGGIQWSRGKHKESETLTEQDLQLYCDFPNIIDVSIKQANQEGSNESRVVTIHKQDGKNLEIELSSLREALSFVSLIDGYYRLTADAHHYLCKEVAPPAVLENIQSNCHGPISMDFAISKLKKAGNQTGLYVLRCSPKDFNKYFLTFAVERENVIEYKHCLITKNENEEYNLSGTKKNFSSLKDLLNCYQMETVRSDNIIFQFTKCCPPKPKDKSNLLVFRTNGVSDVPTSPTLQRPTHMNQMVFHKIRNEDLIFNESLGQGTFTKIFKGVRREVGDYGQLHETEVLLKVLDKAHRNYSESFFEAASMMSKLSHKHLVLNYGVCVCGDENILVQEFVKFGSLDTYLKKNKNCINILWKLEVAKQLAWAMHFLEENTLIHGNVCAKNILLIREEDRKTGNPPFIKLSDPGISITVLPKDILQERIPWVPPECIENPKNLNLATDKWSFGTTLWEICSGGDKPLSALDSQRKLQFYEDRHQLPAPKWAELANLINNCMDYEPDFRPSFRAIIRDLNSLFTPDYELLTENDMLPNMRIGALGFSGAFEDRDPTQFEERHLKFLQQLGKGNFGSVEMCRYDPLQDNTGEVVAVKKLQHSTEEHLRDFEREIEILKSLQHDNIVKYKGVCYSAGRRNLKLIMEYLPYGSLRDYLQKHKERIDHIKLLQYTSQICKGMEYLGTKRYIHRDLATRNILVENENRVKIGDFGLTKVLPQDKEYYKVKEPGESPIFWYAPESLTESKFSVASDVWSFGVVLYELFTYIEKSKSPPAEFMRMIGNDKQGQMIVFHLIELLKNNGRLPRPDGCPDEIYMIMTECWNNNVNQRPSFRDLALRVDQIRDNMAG
Sequence of CDK9 (human) (P50750 whole entry, looked up): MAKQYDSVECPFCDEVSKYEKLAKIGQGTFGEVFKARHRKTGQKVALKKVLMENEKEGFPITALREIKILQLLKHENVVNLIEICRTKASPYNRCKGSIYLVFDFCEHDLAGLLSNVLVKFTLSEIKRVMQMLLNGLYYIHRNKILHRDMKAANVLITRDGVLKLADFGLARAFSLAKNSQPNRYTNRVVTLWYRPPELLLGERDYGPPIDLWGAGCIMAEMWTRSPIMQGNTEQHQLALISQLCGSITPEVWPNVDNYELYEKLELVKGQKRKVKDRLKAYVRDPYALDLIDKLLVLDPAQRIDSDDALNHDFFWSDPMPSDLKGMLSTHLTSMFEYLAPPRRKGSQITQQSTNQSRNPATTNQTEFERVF
Sequence of PRKCZ (human) (Q05513 whole entry, looked up): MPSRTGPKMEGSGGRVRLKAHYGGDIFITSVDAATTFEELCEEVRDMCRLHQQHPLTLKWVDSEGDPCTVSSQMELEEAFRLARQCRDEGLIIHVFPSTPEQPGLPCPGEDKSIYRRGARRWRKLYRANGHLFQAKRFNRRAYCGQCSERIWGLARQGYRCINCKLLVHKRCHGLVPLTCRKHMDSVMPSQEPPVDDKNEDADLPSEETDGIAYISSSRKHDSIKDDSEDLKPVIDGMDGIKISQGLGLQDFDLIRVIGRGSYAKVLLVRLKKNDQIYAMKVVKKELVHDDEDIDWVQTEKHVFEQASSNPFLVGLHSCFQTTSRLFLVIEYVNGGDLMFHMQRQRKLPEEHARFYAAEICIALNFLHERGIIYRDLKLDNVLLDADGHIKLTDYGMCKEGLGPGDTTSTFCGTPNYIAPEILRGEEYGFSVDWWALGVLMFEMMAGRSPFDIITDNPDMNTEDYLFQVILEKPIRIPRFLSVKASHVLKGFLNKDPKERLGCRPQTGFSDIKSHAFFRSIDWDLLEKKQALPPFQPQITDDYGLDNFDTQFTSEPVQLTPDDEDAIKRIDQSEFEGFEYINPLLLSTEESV
Sequence of CSNK1G1 (human) (Q9HCP0 whole entry, looked up): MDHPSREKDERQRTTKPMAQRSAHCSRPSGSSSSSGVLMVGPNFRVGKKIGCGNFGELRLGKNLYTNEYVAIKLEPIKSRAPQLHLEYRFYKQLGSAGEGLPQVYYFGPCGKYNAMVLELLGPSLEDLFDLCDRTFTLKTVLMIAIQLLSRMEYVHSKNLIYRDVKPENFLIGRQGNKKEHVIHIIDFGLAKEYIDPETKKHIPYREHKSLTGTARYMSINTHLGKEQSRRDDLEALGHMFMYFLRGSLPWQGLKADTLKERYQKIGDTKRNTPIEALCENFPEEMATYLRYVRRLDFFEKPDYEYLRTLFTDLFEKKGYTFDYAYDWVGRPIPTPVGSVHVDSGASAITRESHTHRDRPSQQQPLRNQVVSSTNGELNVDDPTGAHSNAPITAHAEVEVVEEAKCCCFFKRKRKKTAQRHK

inhibition ([1]; compound 0.02 µM): -4%
inhibition ([1]; compound 0.2 µM): -0.6%
inhibition ([2]; compound 0.02 µM): -3.2%
inhibition ([2]; compound 0.2 µM): -3.3%
inhibition ([3]; compound 0.02 µM): -3.7% and -4.3%
inhibition ([3]; compound 0.2 µM): -3.5% and -3.9%
inhibition ([4]; compound 0.02 µM): -2%
inhibition ([4]; compound 0.2 µM): -0.6%
inhibition ([5]; compound 0.02 µM): -1.8%
inhibition ([5]; compound 0.2 µM): -0.5%
inhibition ([6]; compound 0.02 µM): 25.7%
inhibition ([6]; compound 0.2 µM): 95.3%
inhibition ([7]; compound 0.02 µM): -7.8%
inhibition ([7]; compound 0.2 µM): -0.3%
inhibition ([8]; compound 0.02 µM): -0.5%
inhibition ([8]; compound 0.2 µM): 23.3%
inhibition ([9]; compound 0.02 µM): -6.3%
inhibition ([9]; compound 0.2 µM): 0.5%
inhibition ([10]; compound 0.02 µM): -0.9%
inhibition ([10]; compound 0.2 µM): -6.5%
inhibition ([11]; compound 0.02 µM): -4%
inhibition ([11]; compound 0.2 µM): -4.5%
inhibition ([12]; compound 0.02 µM): 4.5%
inhibition ([12]; compound 0.2 µM): 4.5%
inhibition ([13]; compound 0.02 µM): 5.1%
inhibition ([13]; compound 0.2 µM): 4%
inhibition ([14]; compound 0.02 µM): -2.6%
inhibition ([14]; compound 0.2 µM): -3.5%
inhibition ([15]; compound 0.02 µM): -9.4%
inhibition ([15]; compound 0.2 µM): -7.7%
inhibition ([17]; compound 0.02 µM): 8.3%
inhibition ([18]; compound 0.02 µM): 8.9%
inhibition ([18]; compound 0.2 µM): -17.5%
inhibition ([19]; compound 0.02 µM): -4.3%
inhibition ([19]; compound 0.2 µM): 0.3%
inhibition ([20]; compound 0.02 µM): -2.7%
inhibition ([20]; compound 0.2 µM): -4.9%
inhibition ([21]; compound 0.02 µM): 2.7%
inhibition ([21]; compound 0.2 µM): 1.6%
inhibition ([22]; compound 0.02 µM): 11.1%
inhibition ([22]; compound 0.2 µM): -2.2%
inhibition ([23]; compound 0.02 µM): 10.1%
inhibition ([23]; compound 0.2 µM): 1.5%
inhibition ([24]; compound 0.02 µM): -0.3%
inhibition ([24]; compound 0.2 µM): -1.5%
inhibition ([25]; compound 0.02 µM): -3.4%
inhibition ([25]; compound 0.2 µM): -3.3%
inhibition ([26]; compound 0.02 µM): 3.9%
inhibition ([26]; compound 0.2 µM): 2.2%
inhibition ([27]; compound 0.02 µM): -3.3%
inhibition ([27]; compound 0.2 µM): -0.4%
inhibition ([28]; compound 0.02 µM): 3.7%
inhibition ([28]; compound 0.2 µM): 16.5%
inhibition ([29]; compound 0.02 µM): -7.9%
inhibition ([29]; compound 0.2 µM): -5.3%
inhibition ([30]; compound 0.02 µM): 45.1%
inhibition ([30]; compound 0.2 µM): 91.7%
inhibition ([31]; compound 0.02 µM): -1.8%
inhibition ([31]; compound 0.2 µM): -1.6%
inhibition ([32]; compound 0.02 µM): -0.5%
inhibition ([32]; compound 0.2 µM): 24.9%
inhibition ([33]; compound 0.02 µM): -3.6%
inhibition ([33]; compound 0.2 µM): -3.6%
inhibition ([34]; compound 0.02 µM): 3.8%
inhibition ([34]; compound 0.2 µM): 2.8%
Structure (SMILES): COc1cc2c(Oc3ccc4[nH]c(C)cc4c3F)ncnc2cc1OCCCN1CCCC1
inhibition ([16]; compound 0.02 µM): -3.3%
inhibition ([16]; compound 0.2 µM): -2.9%

inhibition ([1]; compound 0.001 µM): -4%
inhibition ([1]; compound 0.02 µM): -4.7%
inhibition ([2]; compound 0.001 µM): -4.7%
inhibition ([2]; compound 0.02 µM): -6.4%
inhibition ([3]; compound 0.001 µM): -5.3% and -6.3%
inhibition ([3]; compound 0.02 µM): -5.2% and -5.3%
inhibition ([4]; compound 0.001 µM): -4.5%
inhibition ([4]; compound 0.02 µM): -3.6%
inhibition ([5]; compound 0.001 µM): -2.7%
inhibition ([5]; compound 0.02 µM): -2.1%
inhibition ([6]; compound 0.001 µM): -7%
inhibition ([6]; compound 0.02 µM): 1.9%
inhibition ([7]; compound 0.001 µM): -9.1%
inhibition ([7]; compound 0.02 µM): -6.5%
inhibition ([8]; compound 0.001 µM): -7.3%
inhibition ([8]; compound 0.02 µM): -5.5%
inhibition ([9]; compound 0.001 µM): -5.2%
inhibition ([9]; compound 0.02 µM): -1.1%
inhibition ([10]; compound 0.001 µM): -3.1%
inhibition ([10]; compound 0.02 µM): 1.9%
inhibition ([11]; compound 0.001 µM): 5.5%
inhibition ([11]; compound 0.02 µM): 3.1%
inhibition ([12]; compound 0.001 µM): 2.5%
inhibition ([12]; compound 0.02 µM): 4.7%
inhibition ([13]; compound 0.001 µM): 4.6%
inhibition ([14]; compound 0.001 µM): -2.8%
inhibition ([14]; compound 0.02 µM): -3.8%
inhibition ([15]; compound 0.001 µM): -9.7%
inhibition ([15]; compound 0.02 µM): -9.3%
inhibition ([17]; compound 0.001 µM): 5.8%
inhibition ([17]; compound 0.02 µM): 10.5%
inhibition ([18]; compound 0.001 µM): 9.9%
inhibition ([18]; compound 0.02 µM): -0.7%
inhibition ([19]; compound 0.001 µM): -6.3%
inhibition ([19]; compound 0.02 µM): -0.6%
inhibition ([20]; compound 0.001 µM): -2.9%
inhibition ([20]; compound 0.02 µM): -4.8%
inhibition ([21]; compound 0.001 µM): 0.1%
inhibition ([21]; compound 0.02 µM): -0.5%
inhibition ([22]; compound 0.001 µM): 15.6%
inhibition ([22]; compound 0.02 µM): -0.9%
inhibition ([23]; compound 0.001 µM): 12%
inhibition ([23]; compound 0.02 µM): -4.6%
inhibition ([24]; compound 0.001 µM): -4.8%
inhibition ([24]; compound 0.02 µM): -2.1%
inhibition ([25]; compound 0.001 µM): -5.4%
inhibition ([25]; compound 0.02 µM): -2.8%
inhibition ([26]; compound 0.001 µM): -0.7%
inhibition ([26]; compound 0.02 µM): 6%
inhibition ([27]; compound 0.001 µM): -5.3%
inhibition ([27]; compound 0.02 µM): -4.6%
inhibition ([28]; compound 0.001 µM): 0.7%
inhibition ([28]; compound 0.02 µM): -1.6%
inhibition ([29]; compound 0.001 µM): -9.3%
inhibition ([29]; compound 0.02 µM): -6.5%
inhibition ([30]; compound 0.001 µM): 6.2%
inhibition ([30]; compound 0.02 µM): 21.3%
inhibition ([31]; compound 0.001 µM): -3.3%
inhibition ([31]; compound 0.02 µM): -2%
inhibition ([32]; compound 0.001 µM): -6%
inhibition ([32]; compound 0.02 µM): 1.4%
inhibition ([33]; compound 0.001 µM): -4.2%
inhibition ([33]; compound 0.02 µM): -3.6%
inhibition ([34]; compound 0.001 µM): 1.8%
inhibition ([34]; compound 0.02 µM): -0.3%
Structure (SMILES): CNC(=O)c1ccccc1Sc1ccc2c(/C=C/c3ccccn3)n[nH]c2c1
inhibition ([16]; compound 0.001 µM): -5.6%
inhibition ([16]; compound 0.02 µM): -3.7%
